Usually Cmax stands for the peak of the concentration-time curve. One may read the Tmax as the time from dosing to the highest level. One may read the solubility as the dissolved amount per volume that the medium holds.

This is an account of results in US7521454B2 (Dainippon Sumitomo Pharma Co., Ltd., priority 2001, dated 2009).

Series [1] relates to mouse spleen cell. As to the kind of experiment: cells. The class given is cell-based. Conditions: Mus musculus, 24 h, read-out: Interferon-inducing activity: Minimum effective concentration.
The test system of series [2] is human peripheral blood mononuclear cells (PBMC). As to the kind of experiment: Interferon-inducing activity in human peripheral blood mononuclear cells (PBMC), IFN-α ELISA.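 Also: IFN-α in pg/ml with a 1.25 pg/ml detection limit.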 The class given is cell-based. Conditions: 24 h. On the procedure: Peripheral bloods were sampled from 5 healthy volunteers using a syringe containing heparin, and peripheral blood mononuclear cells (PBMC) were prepared by density gradient centrifugation utilizing the Lymphoprep™ (NYCOMED PHARMA AS). PBMCs were washed twice in serum-free RPMI 1640 medium and adjusted at 1×10^6 cells/ml in RPMI 1640 medium comprising 10% fetal bovine serum. The product was cultured in the presence of a test compound dissolved in dimethyl sulfoxide (final concentration: 0.1%) in an incubator in the presence of 5% CO^2 at 37° C. for 24 hours. As a control, 0.1% dimethyl sulfoxide containing no test compound was used. The culture supernatant was aseptically collected by filtration. Thereafter, the supernatant was cryopreserved at −20° C. or lower until it was subjected to the assay for IFN-inducing activity. Human IFN-α in the culture supernatant was quantified using a highly sensitive ELISA system (Amersham).
Background: An ELISA detects its analyte on a solid surface through an enzyme-linked reagent.

The test system of series [3] is IL-4 production. As to the kind of experiment: Inhibitory activity against Th2 cytokine produced from sensitized spleen cells: IL-4. The class given is cell-based, mouse. Conditions: Mus musculus, 72 h, OVA-sensitized BALB/c spleen cells, 3 days, read-out: Inhibitory activity against IL-4 production. The method in brief: (§1)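 BALB/c mice immunized i.p. with 10 μg ovalbumin on alum, boosted at day 14; spleen cells taken 7 days later. Cells (5×10^6/well) restimulated with ovalbumin 0.5 mg/ml plus test compound, cultured 3 days at 37° C, 5% CO2. Supernatant cytokine quantified by ELISA.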

Series [4] concerns IL-5 production. As to the kind of experiment: Inhibitory activity against Th2 cytokine produced from sensitized spleen cells: IL-5. The conditions noted are these: Mus musculus, 72 h, OVA-sensitized BALB/c spleen cells, 3 days, read-out: Inhibitory activity against IL-5 production. The series is classed as cell-based, mouse. The method in brief:
as §1

Series [5] is described as follows: Gastrointestinal absorption in rat (drug level in blood by HPLC). The series is classed as in vivo. The conditions noted are these: blood, dose 3 mg/kg oral, SD male rat. On the procedure: A test compound was suspended in an aqueous solution of 0.5% carboxymethylcellulose, and the resulting suspension was orally administered to an SD male rat. Blood was sampled with the elapse of time, and the level of the drug in blood was assayed by HPLC.

Series [6] concerns Renca cells. Description: Antitumor effect in tumor-bearing mouse model (Renca). The class given is in vivo. The conditions noted are these: Renca in BALB/c mice, 5 times every 4 days. On the procedure: Murine renal adenocarcinoma-derived Renca cells (obtained from Iwate Medical University) were intradermally transplanted to the left ventral portions of 6-week-old BALB/c male mice (Charles River Japan, Inc.) at 5×10^4 cells/0.05 ml/mouse. Their body weights were measured on the next day, and they were divided into 5 groups (each group comprising 6 mice) in such a manner that the average body weights were substantially the same among groups. Vehicles (an aqueous solution of 0.5% carboxymethylcellulose (hereinafter referred to as “CMC-Na”)) and the compound of Example 27 (1 mg/kg and 3 mg/kg) were forcibly administered orally using an oral Sonde (10 ml/kg). Mouse interferon a (hereinafter referred to as “mIFN-α”) was intradermally administered to mice through their backs in amounts of 1×10^4 U/0.1 ml and 5×10^4 U/0.1 ml per mouse. Administration was carried out 5 times every 4 days. The longer diameter (L, mm) and the shorter diameter (W, mm) of the generated tumors were measured twice a week, and the tumor volumes (V, mm^3) were calculated (V=L×W^2). Also, significant difference was examined in accordance with Steel's multiple comparison. […]
A surveillance period of about 30 days after the transplantation was provided, the tumor volume and the body weight were monitored, and an antitumor effect against the Renca cells was evaluated. […]

The subject of series [7] is OV2944-HM-1 cells. As to the kind of experiment: Antitumor effect in mouse model of spontaneous metastasis (OV2944-HM-1). The series is classed as in vivo. Conditions: 35 days after transplantation, Example 27 3 mg/kg oral, mIFN-α 5×10^4 U intradermal. On the procedure: OV2944-HM-1 cells (obtained from Hiroshima University) derived from mouse ovarian cancer that is highly metastatic to the lymph nodes were intradermally transplanted to the buttocks of 6-week-old B6C3F1 female mice (Charles River Japan, Inc.) in amounts of 1×10^6 cells/0.05 ml/mouse. Ten days after the transplantation, the primary tumor was excised under Nembutal anaesthesia. Adhesives (Aron Alpha) were applied to the excised portions, and the stumps were sewed up with wound clips. The next day, body weights were measured, and they were divided into 3 groups (each group comprising 6 mice) in such a manner that the average body weights among groups were substantially the same. Vehicles (aqueous solutions of 0.5% CMC-Na) and the compound of Example 27 (3 mg/kg) were forcibly administered orally using an oral Sonde (10 ml/kg). Also, 5×10^4 U/0.1 ml/mouse of mIFN-α was intradermally administered through their backs. Administration was carried out 5 times every 4 days. Regional lymph nodes (mouse cervical, brachium, axillary cavity) were extirpated 35 days after the transplantation, and their wet weights were measured. Simultaneously, lungs were extirpated to visually inspect the metastasis. Also, significant difference was examined in accordance with Steel's multiple comparison. The SAS system for Windows Release 8.01 (SAS Institute Inc., Cary, N.C., U.S.A.) was used for the examination.
Thus, pulmonary metastasis was examined.

Series [8] can be described thus: Solubility in citric acid/disodium phosphate buffers. The conditions noted are these: thermodynamic from solid.
Procedure: 5.53% citric acid (monohydrate) and 1.75% disodium phosphate (anhydrous) were mixed together to prepare buffers (pH 2.5, 5.5, 7.4). A compound was added thereto, the mixture was stirred in a vortex mixer and subjected to ultrasonication for 30 minutes. Thereafter, the resultant was stirred in a vortex mixer again and then centrifuged at 15,000 rpm for 20 minutes. The levels of the compounds in the supernatants were then quantified by HPLC.

Structures are written as SMILES. Values after ≈ are worked out from the molar mass of the structure shown.

Take `CCCCNc1nc(N)c2nc(O)n(Cc3ccc(C)nc3)c2n1` [Example 27, 2-Butylamino-8-hydroxy-9-(6-methyl-3-pyridylmethyl)adenine]: the minimal effective concentration in series [1] worked out at 0.003 µM. Besides, the “Interferon-inducing activity (human IFN-α in culture supernatant)” value stood at 6 ± 3 pg/mL in series [2] (concentration 1 nM), 26 ± 22 pg/mL in series [2] (concentration 3 nM), 56 ± 37 pg/mL in series [2] (concentration 10 nM) and 59 ± 33 pg/mL in series [2] (concentration 30 nM). The results for the activity at 0.001 µM in series [3] (concentration 1 nM) and in series [4] (concentration 1 nM) were 30% and 68%, respectively. The activity at 0.01 µM in series [3] (concentration 10 nM) was determined as 1%; in series [4] (concentration 10 nM) it was 20%. Besides, the results for the activity at 0.1 µM in series [3] (concentration 100 nM) and in series [4] (concentration 100 nM) were under 1% and 12%, respectively. The Cmax in series [5] (read-out: Cmax) worked out at 0.565 µg/mL. Besides, the Tmax in series [5] (read-out: Tmax) is 30 min. Further, the “antitumor effect compared with mIFN-α” value in series [6] (1 and 3 mg/kg oral) was “equivalent to or higher than that attained by the administration of mIFN-α”. The “tumor volume compared with the vehicle group” value in series [6] (Example 27 1 and 3 mg/kg oral, mIFN-α 1×10^4 and 5×10^4 U intradermal, P<0.05) is “significantly smaller”. For the same molecule, in series [7], the “pulmonary metastasis (visual inspection), in words” value was “not observed at all”. Further, the “lymph node metastasis (wet weight of metastasis lymph nodes vs vehicle group)” value in series [7] (B6C3F1 mice, 5 times every 4 days) is “smaller than those attained from the group to which vehicles were administered”. Besides, the “The number of mice which exhibited pulmonary metastasis in 6 mice” value in series [7] (visual inspection) is 0. For the same molecule, the solubility at 30 min in series [8] (pH 2.5, aqueous buffer) stood at 610 µg/mL (≈ 1860 µM); in series [8] (pH 5.5, aqueous buffer) it was 5 µg/mL (≈ 15.3 µM); in series [8] (pH 7.4, aqueous buffer), 2 µg/mL (≈ 6.11 µM).
